Test results taken from patent EP2682005A1, “A dietary supplement composition” (Symrise AG, priority 2012, dated 2014).

Columns and labels:
Assay type in all cases: biochemical
[1] = molecular target: Xanthine oxidase (Homo sapiens, UniProt P47989); assay: Activity against free radicals, Method D (xanthine oxidase, superoxide anion by NBT reduction); conditions: optical density at 490 nm
Experimental: (§1) The effectiveness of the test substances against free radicals was tested by various chemical and biochemical methods: Method A A first test was carried out using diphenylpicrylhydrazyl (DPPH°) which is a relatively stable radical that forms a purple-coloured solution. The optical density (DO) at 513 nm was determined. Method B Hydroxyl radicals were released from hydrogen peroxide in the presence of iron (II) ions and EDTA and were used to oxidize desoxyribose. The oxidation product forms a pink-coloured compound with thiobarbituric acid. Its concentration corresponds to the optical density at 532 nm. A test was conducted to determine whether less desoxyribose is oxidized, i.e. whether fewer free radicals are released, in the presence of the test products. […] Method D Xanthine oxidase is an enzyme which is released through oxidative stress and catabolizes the decomposition of the purine bases adenine and guanine into uronic acid and superoxide anions. The superoxide anions dismute into hydrogen peroxide and oxygen either spontaneously or in the presence of Superoxid Dismutase. The quantity of superoxide anion can be determined by NBT reduction via the optical density at 490 nm. A test was conducted to determine whether fewer superoxide anions are generated or more anions are destroyed in the presence of the test substances.
The results are set out in Table 1 and represent the EC50 values in % (w/v).

[2] = Activity against free radicals, Method A (DPPH radical, optical density at 513 nm)
Experimental: as §1, with “substances. The results are set out in Table 1 and represent the EC50 values in % (w/v).” for “substances.”

[3] = Activity against free radicals, Method C (desoxyribose oxidation in the absence of EDTA, forming inactive iron complexes); conditions: as Method B in the absence of EDTA
Experimental: as §1, with “substances. […]” for “substances.”

[4] = Activity against free radicals, Method B (hydroxyl radicals from hydrogen peroxide with iron (II) ions and EDTA, desoxyribose oxidation); conditions: optical density at 532 nm
Experimental: as §1, with “substances. […]” for “substances.”

Sequence of Xanthine oxidase (P47989 whole entry, species assumed): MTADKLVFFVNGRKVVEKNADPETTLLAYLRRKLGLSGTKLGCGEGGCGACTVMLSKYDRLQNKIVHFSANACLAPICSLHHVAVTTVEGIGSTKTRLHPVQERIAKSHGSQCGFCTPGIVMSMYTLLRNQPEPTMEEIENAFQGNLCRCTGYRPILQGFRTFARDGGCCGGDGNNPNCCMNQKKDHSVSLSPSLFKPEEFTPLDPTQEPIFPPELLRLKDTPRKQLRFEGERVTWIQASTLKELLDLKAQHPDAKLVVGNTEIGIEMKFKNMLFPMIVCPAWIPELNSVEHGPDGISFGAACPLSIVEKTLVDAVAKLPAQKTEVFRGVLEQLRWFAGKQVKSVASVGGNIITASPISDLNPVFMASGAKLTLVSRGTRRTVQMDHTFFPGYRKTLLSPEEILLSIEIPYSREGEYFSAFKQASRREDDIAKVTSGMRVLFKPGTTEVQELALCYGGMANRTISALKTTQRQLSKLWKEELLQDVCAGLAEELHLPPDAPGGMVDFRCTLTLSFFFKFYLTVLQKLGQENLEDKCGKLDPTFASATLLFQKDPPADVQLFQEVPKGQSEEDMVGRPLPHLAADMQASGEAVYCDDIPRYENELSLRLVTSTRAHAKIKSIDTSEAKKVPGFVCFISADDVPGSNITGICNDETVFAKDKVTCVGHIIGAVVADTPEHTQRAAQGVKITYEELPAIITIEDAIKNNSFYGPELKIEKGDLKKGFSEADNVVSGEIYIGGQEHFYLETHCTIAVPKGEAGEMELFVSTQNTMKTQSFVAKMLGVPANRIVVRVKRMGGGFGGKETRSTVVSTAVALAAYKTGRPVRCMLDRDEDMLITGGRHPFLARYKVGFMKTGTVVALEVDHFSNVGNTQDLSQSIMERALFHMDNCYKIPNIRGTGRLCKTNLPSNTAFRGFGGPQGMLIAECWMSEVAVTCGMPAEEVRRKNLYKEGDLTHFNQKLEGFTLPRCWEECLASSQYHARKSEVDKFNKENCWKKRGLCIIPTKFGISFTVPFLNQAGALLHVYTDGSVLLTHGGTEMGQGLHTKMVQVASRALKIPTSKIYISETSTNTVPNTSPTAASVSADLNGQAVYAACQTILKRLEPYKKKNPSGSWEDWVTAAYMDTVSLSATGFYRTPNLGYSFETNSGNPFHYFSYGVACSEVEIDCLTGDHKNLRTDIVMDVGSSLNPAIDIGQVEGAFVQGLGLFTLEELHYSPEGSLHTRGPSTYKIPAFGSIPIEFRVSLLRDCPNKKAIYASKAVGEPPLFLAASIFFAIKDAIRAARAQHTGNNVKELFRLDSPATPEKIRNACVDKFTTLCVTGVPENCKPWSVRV

Row | Molecule | EC50, Method D [1] | EC50, Method A [2] | EC50, Method C [3] | EC50, Method B [4]
1 | O=C1O[C@H]([C@@H](O)CO)C(O)=C1O [Ascorbic acid] | 0.59 % (w/v) | 0.0013 % (w/v) | 0.9 % (w/v) | 0.26 % (w/v)
2 | Butylhydroxytoluol | No effect | 0.0500 % (w/v) |  | 
3 | Tocopherol | No effect | 0.0067 % (w/v) |  | 
